Counter-ions that a name gives are not always drawn.
target: T1, human TPH1 (Homo sapiens, UniProt P17752); experiment: biochemical; settings: not given
T1 sequence (P17752 1-444): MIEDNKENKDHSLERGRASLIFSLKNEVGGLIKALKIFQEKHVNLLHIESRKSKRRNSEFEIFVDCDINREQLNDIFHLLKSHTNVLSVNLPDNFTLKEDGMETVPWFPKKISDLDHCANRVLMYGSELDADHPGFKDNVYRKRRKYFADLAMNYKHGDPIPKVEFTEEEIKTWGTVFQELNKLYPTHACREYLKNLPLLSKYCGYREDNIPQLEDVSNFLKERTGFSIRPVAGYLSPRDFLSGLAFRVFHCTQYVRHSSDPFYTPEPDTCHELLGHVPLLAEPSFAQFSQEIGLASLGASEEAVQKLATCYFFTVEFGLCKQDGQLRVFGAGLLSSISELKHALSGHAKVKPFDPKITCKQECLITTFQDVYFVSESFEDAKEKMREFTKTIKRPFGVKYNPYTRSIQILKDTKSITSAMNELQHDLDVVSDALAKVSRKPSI
In short: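 Inhibition is derived from 5-hydroxy-L-tryptophan fluorescence (540 nm emission, 300 nm excitation) after perchloric acid stop, relative to DMSO vehicle. Recombinant full-length human enzyme (40-80 nM) reacts with 40 μM tryptophan plus 100 μM methyltetrahydropterin, pH 7.6 Tris/DTT/catalase, 15° C, 60 min.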

Molecule	IC50 [nM]
COc1ccc(C2c3c(nc4cc(Cl)ccn34)CCN2C(=O)COc2ccc3ccccc3c2)cc1OC (stereo not shown) [Example 2.1.1, 1-(7-chloro-1-(3,4-dimethoxyphenyl)-3,4-dihydroimidazo[1,2-a:5,4-c′]dipyridin-2(1H)-yl)-2-(naphthalen-2-yloxy)ethan-1-one hydrochloride]	39
COc1ccc(C2c3c(nc4cc(C(F)(F)F)ccn34)CCN2C(=O)COc2ccc(CN3CCOCC3)c(C)c2C)c(F)c1 (stereo not shown) [Example 3.3.3, 2-(2,3-dimethyl-4-(morpholinomethyl)phenoxy)-1-(1-(2-fluoro-4-methoxyphenyl)-7-(trifluoromethyl)-3,4-dihydroimidazo[1,2-a:5,4-c′]dipyridin-2(1H)-yl)ethan-1-one]	8
O=C(COc1ccc(N2CCOCC2)nc1Cl)N1CCc2nc3cc(C(F)(F)F)ccn3c2C1c1ccc(Cl)cc1F (stereo not shown) [Example 3.4.6, 1-(1-(4-chloro-2-fluorophenyl)-7-(trifluoromethyl)-3,4-dihydroimidazo[1,2-a:5,4-c′]dipyridin-2(1H)-yl)-2-((2-chloro-6-morpholinopyridin-3-yl)oxy)ethan-1-one]	5
CS(=O)(=O)Nc1ccc(OCC(=O)N2CCc3nc4ccccn4c3C2c2ccc(OC(F)(F)F)cc2F)c(Cl)n1 (stereo not shown) [Example 1.19.1, N-(6-chloro-5-(2-(1-(2-fluoro-4-(trifluoromethoxy)phenyl)-3,4-dihydroimidazo[1,2-a:5,4-c′]dipyridin-2(1H)-yl)-2-oxoethoxy)pyridin-2-yl)methanesulfonamide0.71]	113
COc1ccc(C2c3c(nc4cc(C(F)(F)F)ccn34)CCN2C(=O)COc2ccc3ccccc3c2)c(F)c1 (stereo not shown) [Example 3.3.1, 1-(1-(2-fluoro-4-methoxyphenyl)-7-(trifluoromethyl)-3,4-dihydroimidazo[1,2-a:5,4-c′]dipyridin-2(1H)-yl)-2-(naphthalen-2-yloxy)ethan-1-one]	5
COc1ccc(C2c3c(nc4cc(Cl)ccn34)CCN2C(=O)COc2ccc(CN3CCOCC3)cc2Cl)cc1OC[C@H](O)CO (stereo partly drawn) [Example 2.10.2, 1-(7-chloro-1-(3-((R)-2,3-dihydroxypropoxy)-4-methoxyphenyl)-3,4-dihydroimidazo[1,2-a:5,4-c′]dipyridin-2(1H)-yl)-2-(2-chloro-4-(morpholinomethyl)phenoxy)ethan-1-one]	19
COC(C)(C)c1ccc(C2c3c(nc4ccccn34)CCN2C(=O)COc2ccc(NS(C)(=O)=O)nc2Cl)c(F)c1 (stereo not shown) [Example 1.17.2, N-(6-chloro-5-(2-(1-(2-fluoro-4-(2-methoxypropan-2-yl)phenyl)-3,4-dihydroimidazo[1,2-a:5,4-c′]pyridin-2(1H)-yl)-2-oxoethoxy)pyridin-2-yl)methanesulfonamide]	591
COc1ccc(C2c3c(nc4ccccn34)CCN2C(=O)COc2ccc(CN3CCOCC3)nc2Cl)c(F)c1 (stereo not shown) [Example 1.3.1, 2-((2-chloro-6-(morpholinomethyl)pyridin-3-yl)oxy)-1-(1-(2-fluoro-4-methoxyphenyl)-3,4-dihydroimidazo[1,2-a:5,4-c′]dipyridin-2(1H)-yl)ethan-1-one]	84
COc1ccc(C2c3c(nc4cc(Cl)ccn34)CCN2C(=O)COc2ccc3ccccc3c2)cc1OCCO (stereo not shown) [Example 2.13.1, 1-(7-chloro-1-(3-(2-hydroxyethoxy)-4-methoxyphenyl)-3,4-dihydroimidazo[1,2-a:5,4-c′]dipyridin-2(1H)-yl)-2-(naphthalen-2-yloxy)ethan-1-one]	34

The remaining lines, values ahead:

IC50 [nM]	Molecule
72	COc1cc(F)c(C2c3c(nc4cc(C(F)(F)F)ccn34)CCN2C(=O)COc2ccc3c(c2)CNCC3)cc1OC (stereo not shown) [Example 3.18.4, 1-(1-(2-fluoro-4,5-dimethoxyphenyl)-7-(trifluoromethyl)-3,4-dihydroimidazo[1,2-a:5,4-c′]dipyridin-2(1H)-yl)-2-((1,2,3,4-tetrahydroisoquinolin-7-yl)oxy)ethan-1-one]
124	COc1ccc(C2c3c(nc4ccc(Br)cn34)CCN2C(=O)COc2ccc3ccccc3c2)cc1OC (stereo not shown) [Example 10.1.1, 1-(8-bromo-1-(3,4-dimethoxyphenyl)-3,4-dihydroimidazo[1,2-a:5,4-c′]dipyridin-2(1H)-yl)-2-(naphthalen-2-yloxy)ethan-1-one]
138	O=C(COc1ccc2ccccc2c1)N1CCc2nc3cc(C(F)(F)F)ccn3c2C1c1ccc2c(c1)OCCO2 (stereo not shown) [Example 3.17.1, 1-(1-(2,3-dihydrobenzo[b][1,4]dioxin-6-yl)-7-(trifluoromethyl)-3,4-dihydroimidazo[1,2-a:5,4-c′]dipyridin-2(1H)-yl)-2-(naphthalen-2-yloxy)ethan-1-one]
110	Cc1cc(C2c3c(nc4cc(C(F)(F)F)ccn34)CCN2C(=O)COc2ccc(CN3CCOCC3)cc2Cl)ccc1F (stereo not shown) [Example 3.33.2, 2-(2-chloro-4-(morpholinomethyl)phenoxy)-1-(1-(4-fluoro-3-methylphenyl)-7-(trifluoromethyl)-3,4-dihydroimidazo[1,2-a:5,4-c′]dipyridin-2(1H)-yl)ethan-1-one]
31	CCc1nc(NS(C)(=O)=O)ccc1OCC(=O)N1CCc2nc3cccnn3c2C1c1sc(C)nc1C (stereo not shown) [Example 16.5.1, N-(5-(2-(9-(2,4-dimethylthiazol-5-yl)-6,9-dihydropyrido[4′,3′:4,5]imidazo[1,2-b]pyridazin-8(7H)-yl)-2-oxoethoxy)-6-ethylpyridin-2-yl)methanesulfonamide]
106	COc1cc(C2c3c(nc4cc(C(F)(F)F)ccn34)CCN2C(=O)COc2ccc3ccccc3c2)ccc1OC(F)F (stereo not shown) [Example 3.14.1, 1-(1-(4-(difluoromethoxy)-3-methoxyphenyl)-7-(trifluoromethyl)-3,4-dihydroimidazo[1,2-a:5,4-c′]dipyridin-2(1H)-yl)-2-(naphthalen-2-yloxy)ethan-1-one]
468	Cc1ccc(C2c3c(nc4cc(C(F)(F)F)ccn34)CCN2C(=O)COc2cc(-c3ccccc3)nn2C)nc1 (stereo not shown) [Example 3.50.3, 2-((1-methyl-3-phenyl-1H-pyrazol-5-yl)oxy)-1-(1-(5-methylpyridin-2-yl)-7-(trifluoromethyl)-3,4-dihydroimidazo[1,2-a:5,4-c′]dipyridin-2(1H)-yl)ethan-1-one]
5	COc1cc(F)c(C2c3c(nc4cc(C(F)(F)F)ccn34)CCN2C(=O)COc2ccc3ccccc3c2)cc1OC (stereo not shown) [Example 3.18.1, 1-(1-(2-fluoro-4,5-dimethoxyphenyl)-7-(trifluoromethyl)-3,4-dihydroimidazo[1,2-a:5,4-c′]dipyridin-2(1H)-yl)-2-(naphthalen-2-yloxy)ethan-1-one]

same assay, conditions: Table 1; full length human TPH1, 40 μM L-tryptophan, 15° C., 60 minutes; mean if determined several times

Molecule	IC50 [nM]
O=C(COc1ccc(N2CCOCC2)cc1Cl)N1CCc2nc3cc(C(F)(F)F)ccn3c2[C@H]1c1ccc(Cl)cc1F [Example 3.4.5, ((1R)-1-(4-chloro-2-fluorophenyl)-7-(trifluoromethyl)-3,10a-dihydroimidazo[1,2-a:5,4-c′]dipyridin-2(1H)-yl)-2-(2-chloro-4-morpholinophenoxy)ethan-1-one]	6
2-((6-(aminomethyl)-2-chloropyridin-3-yl)oxy)-1-(9-(5-cyclopropyl-3-fluoropyridin-2-yl)-6,9-dihydropyrido[4′,3′:4,5]imidazo[1,2-b]pyridazin-8(7H)-yl)ethan-1-one [Example 16.2.4]	401
